Results published in patent publication US20080199480A1, “Methods for Identifying Risk of Type II Diabetes and Treatments Thereof” (SEQUENOM, INC., priority 2004, published 2008).

B1: recombinant rat ephrin-A5/Fc chimeric ligand, preclustered with anti-human IgG, Fc γ fragment specific antibody (Fc fusion, part only; not given: Fc part, UniProt P97605 21-203, looked up, part only)
chain, part: QDPGSKVVADRYAVYWNSSNPRFQRGDYHIDVCINDYLDVFCPHYEDSVPEDKTERYVLYMVNFDGYSACDHTSKGFKRWECNRPHSPNGPLKFSEKFQLFTPFSLGFEFRPGREYFYISSAIPDNGRRSCLKLKVFVRPTNSCMKTIGVRDRVFDVNDKVENSLEPADDTVHESAEPSRGEN

What was measured:
[1] = target: T1, EPHA3 (Homo sapiens, UniProt P29320); experiment: DELFIA EPHA3 kinase assay (phosphorylation of biotin-Src-peptide); type: biochemical; settings: EPHA3 30 nM, biotin-Src-peptide 1 μM, ATP 30 μM, 3 hr incubation at 37° C., read-out: EPHA3 Potency IC50
T1 construct: human EPHA3 intracellular domain (amino acids 571-986) containing juxtamembrane, kinase and SAM regions; 6xHis; made in house; host or cells: E. coli (Rosetta DE cells)
T1 sequence (P29320 571-983 limits assumed): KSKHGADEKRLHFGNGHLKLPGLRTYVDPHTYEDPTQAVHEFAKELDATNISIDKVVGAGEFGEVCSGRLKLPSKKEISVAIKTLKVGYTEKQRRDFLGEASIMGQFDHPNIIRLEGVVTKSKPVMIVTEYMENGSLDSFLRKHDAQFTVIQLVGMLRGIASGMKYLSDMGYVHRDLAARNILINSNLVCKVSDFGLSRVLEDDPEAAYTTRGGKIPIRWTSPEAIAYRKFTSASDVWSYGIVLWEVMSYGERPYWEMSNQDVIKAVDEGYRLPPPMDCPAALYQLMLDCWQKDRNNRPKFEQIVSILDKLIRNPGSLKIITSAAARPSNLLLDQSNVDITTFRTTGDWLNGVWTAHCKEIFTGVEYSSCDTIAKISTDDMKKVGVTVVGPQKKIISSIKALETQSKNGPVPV
Procedure: An EPHA3 enzyme construct comprised the human EPHA3 intracellular domain (amino acids 571-986) containing juxtamembrane, kinase and SAM regions. It was expressed in E. coli as a recombinant protein. 6×His and NusA expression tags were used in pET28a and pET44a vectors (Novagen), respectively. Expression was carried out in Rosetta DE cells with IPTG induction followed by recombinant protein purification on a Ni-column using imidazole elution buffer.
The ATP concentrations are selected near the Michaelis-Menten constant (KM) for each individual kinase. Dose-response experiments are performed at ten different inhibitor concentrations in a 384-well plate format. The data are fitted to a standard four-parameter equation listed below:
Y=Min+(Max−Min)/(1+XIC50)̂H
These parameters are obtained by nonlinear regression algorithm built into ActivityBase software (available from ID Business Solutions Ltd., of Guildford, Surrey, UK).
The DELFIA method is a solid-phase, non-homogeneous system that measures enzymatic activity by quantitating the phosphorylation of an immobilized substrate. The compound names are provided in the “Compositions Comprising Diabetes-Directed Molecules” section.
In this experiment, EPHA3 (30 nM) was incubated with biotinylated substrate, biotin-Src-peptide (1 μM)+ATP (30 μM) in an assay medium (10 mM HEPES pH 7.4, 2 mM MgCl2, 10 μM MnCl2, 1.0 mM DTT, 0.01% Pluronic F-127) in the presence of test compounds. After 3 hr incubation at 37° C., the reaction was stopped (5 mM EDTA) and the substrate phosphorylation was quantified in DELFIA assay using Eu-labeled anti-phosphotyrosine antibody.

[2] = system: Differentiated 3T3-L1; experiment: Glucose uptake assay (insulin-mediated uptake of radioactive glucose); type: cell-based, mouse; settings: 100 nM insulin for 10 minutes
Text: One of the many responses of adipocytes and muscle cells after exposure, to insulin is the transport of glucose intracellularly. This transport is mediated by GLUT4, an insulin-regulatable glucose transporter. Insulin binding to insulin receptors on the cell surface results in autophosphorylation and activation of the intrinsic tyrosine kinase activity of the insulin receptor. Phosphorylated tyrosine residues on the insulin receptor and its endogenous targets activate several intracellular signaling pathways that eventually lead to the translocation of GLUT4 from intracellular stores to the extracellular membrane. Cells were plated in 6-well dishes, and grown to confluency. Cells were then differentiated with DMEM plus 10% fetal calf serum (FCS), 10 ug/mL insulin, 390 ng/mL dexamethasone and 112 ug/mL isobutylmethylxanthine for 2 days. After 2 days of differentiation, media was changed to maintenance media DMEM plus 10% FCS and 5 ug/mL insulin. Media was changed every 2 days thereafter. Cells were assayed for insulin-mediated glucose uptake 10 days after differentiation. On the day of the assay, cells were washed once with PBS, and serum starved by adding 2 mL of DMEM plus 2 mg/mL BSA for 3 hours. During serum starvation, recombinant rat ephrin-A5/Fc chimeric ligand was preclustered. […] Lysates were read in a Wallac 1450 Microbeta Liquid Scintillation and Luminescence Counter.

[3] = system: resistin mRNA in differentiated 3T3-L1 cells; experiment: Quantitative assessment of mResistin levels (mRNA, PCR); type: cell-based, mouse; settings: 10 nM insulin for 2 hours
Procedure: Resistin is a secreted factor specifically expressed in white adipocyte. […] Elevated levels of resistin have been measured in genetically obese, and high fat fed obese mice. It is therefore thought that resistin contributes to peripheral tissue insulin unresponsiveness, one of the pathological hallmarks of diabetes.
3T3-L1 cells were differentiated for 3 days as previously described and maintained for three days prior to splitting. At day 5 post-differentiation, differentiated cells were plated in 10 cm dish at a cell density of 3×10^6 cells. Cells were then serum starved on day 7 after initiation of differentiation. On day 8, cells were treated with pre-clustered recombinant rat ephrin-A5/Fc chimera as described above for 10 min and treated with 10 nM insulin for 2 hours. Cells were harvested, mRNA extracted using magnetic DYNAL beads and reverse transcribed to cDNA using. Superscript First-Strand Synthesis as described by the manufacturer. The following primers: forward primer; 5′ GTCGCTTCCTGATGTCGGTCA 3′, and reverse primer, 5′ GGCCAGCCTGGACTATATGAG 3′, were used in 15 uL PCR reaction using 55 deg annealing temperature and 30 cycles of amplification.

[4] = system: Differentiated 3T3-L1; experiment: Triacylglycerol (TG) assay; type: cell-based, mouse; settings: 100 nM insulin, 2 hours
Text: A direct metabolic consequence of glucose transport intracellularly is its incorporation into the fatty acid and glycerol moieties of triacylglycerol (TG). TGs are highly concentrated stores of metabolic energy, and are the major energy reservoir of cells. In mammals, the major site of accumulation of triacylglycerols is the cytoplasm of adipose cells. Adipocytes are specialized for the synthesis, and storage of TG, and for their mobilization into fuel molecules that are transported to other tissues through the bloodstream. It is likely that changes in the transport of glucose intracellularly can affect cytoplasmic stores of triacylglycerols.
Cells were plated in 6-well dishes, and grown to confluency. When cells reached confluency, cells were differentiated with DMEM plus 10% fetal calf serum (FCS), 10 ug/mL insulin, 390 ng/mL dexamethasone and 112 ug/mL isobutylmethylxanthine for 2 days. After 2 days of differentiation, media was changed to maintenance media DMEM plus 10%. FCS and […] insulin. On the day of the assay (day 9 post-differentiation), cells were washed once with PBS, and serum starved by adding 2 mL of DMEM plus 2 mg/ml BSA for 3 hours. During serum starvation, recombinant rat ephrin-A5/Fc chimeric ligand was preclustered. […] The assay was read at 500-550 nm.

[5] = target: T2, EPHA3 on differentiated 3T3-L1 cells (mouse) (UniProt P29319); experiment: cell-based or functional assay
T2 sequence (looked up): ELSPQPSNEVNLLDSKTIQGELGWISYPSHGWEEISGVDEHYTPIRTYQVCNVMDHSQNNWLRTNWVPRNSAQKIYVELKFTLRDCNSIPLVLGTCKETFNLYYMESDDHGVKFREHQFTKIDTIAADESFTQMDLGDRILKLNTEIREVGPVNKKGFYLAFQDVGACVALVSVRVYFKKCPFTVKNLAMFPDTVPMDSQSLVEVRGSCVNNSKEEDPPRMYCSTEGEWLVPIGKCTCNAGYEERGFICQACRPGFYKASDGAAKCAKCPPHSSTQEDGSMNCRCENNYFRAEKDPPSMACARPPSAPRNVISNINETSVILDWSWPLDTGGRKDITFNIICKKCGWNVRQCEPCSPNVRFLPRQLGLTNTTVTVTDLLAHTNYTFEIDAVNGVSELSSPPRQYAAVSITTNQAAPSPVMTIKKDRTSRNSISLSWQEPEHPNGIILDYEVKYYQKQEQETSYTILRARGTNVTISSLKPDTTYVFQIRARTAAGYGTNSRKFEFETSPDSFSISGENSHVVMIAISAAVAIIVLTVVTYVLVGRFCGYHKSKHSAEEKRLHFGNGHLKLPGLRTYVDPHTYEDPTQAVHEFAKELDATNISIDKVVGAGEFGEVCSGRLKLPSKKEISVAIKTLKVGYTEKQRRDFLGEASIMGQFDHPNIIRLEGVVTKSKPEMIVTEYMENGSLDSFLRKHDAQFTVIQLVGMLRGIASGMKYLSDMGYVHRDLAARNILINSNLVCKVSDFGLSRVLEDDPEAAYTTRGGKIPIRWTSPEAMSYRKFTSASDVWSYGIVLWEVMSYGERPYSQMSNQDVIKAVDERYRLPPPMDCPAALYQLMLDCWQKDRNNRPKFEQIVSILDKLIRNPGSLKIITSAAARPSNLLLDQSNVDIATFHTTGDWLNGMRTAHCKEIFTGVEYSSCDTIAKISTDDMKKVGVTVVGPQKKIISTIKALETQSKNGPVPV

Molecule	IC50 [1] [nM]	also measured
COc1cc2c(Nc3ccc(Cl)cc3F)ncnc2cc1OCC1CN(C(C)C)CCO1 (stereo not drawn) [sqnm-15]	800	
COc1cc2ncnc(Nc3ccc(Cl)c(Cl)c3)c2cc1OC [sqnm-1]	2000	
COc1cc2c(Nc3ccc(Cl)c(Br)c3)ncnc2cc1OCC1CN(C)CCO1 (stereo not drawn) [sqnm-12]	200	
COc1cc2ncnc(Nc3ccc(Cl)cc3F)c2cc1OC [sqnm-5]	500	
COc1cc2c(Nc3ccc(Cl)cc3F)ncnc2cc1OCC1CN(C)CCO1 (stereo not drawn) [sqnm-14]	200	
COc1cc2c(Nc3ccc(Cl)c(Cl)c3)ncnc2cc1OCC1CN(C2CCCC2)CCO1 (stereo not drawn) [sqnm-9]	200	
Oc1cccc(Nc2ncnc3ccccc23)c1 [sqnm-16]	11000	
COc1cc2c(Nc3ccc(Cl)c(Cl)c3)ncnc2cc1OCC1CN(C)CCO1 (stereo not drawn) [sqnm-11]	400	
COc1cc2c(Nc3cc(Cl)ccc3F)ncnc2cc1OCC1CCN(C)CC1 [sqnm-8]	2000	
COc1cc2c(Nc3ccc(Cl)cc3F)ncnc2cc1OCC1CCN(C)CC1 [sqnm-7]	900	
COc1cc2ncnc(Nc3cccc(Cl)c3)c2cc1OC [sqnm-4]	4500	
insulin: porcine insulin used to stimulate differentiated 3T3-L1 cells		increase in uptake of radioactive glucose [2]: 22 fold; resistin mRNA levels [3]: decrease; increase in TG stores [4]: about 23%
COc1cc2c(Nc3ccc(Cl)cc3F)ncnc2cc1OCC1CN(C2CCCC2)CCO1 (stereo not drawn) [sqnm-10]	300	
B1		insulin-mediated triacylglycerol (TG) stores, differentiated 3T3-L1, 10 min pretreatment with ephrin-A5 [5]: 10 % decrease; uptake of radioactive glucose, insulin-treated differentiated 3T3-L1, 10 min pretreatment with pre-clustered ephrin-A5 [5]: 20 % decrease; uptake of radioactive glucose, insulin-treated differentiated 3T3-L1, 90 min preincubation with pre-clustered ephrin-A5 [5]: 15 % decrease
